The record followed here is patent US20260138981A1, “DIHYDROFOLATE REDUCTASE INHIBITORS FOR ANTI-BIOTIC RESISTANT INFECTIONS” (THE TRUSTEES OF PRINCETON UNIVERSITY, priority 2022, published 2026).

Series [1] relates to P. aeruginosa PA01 and ATTC 27853, 5 ESKAPE pathogens. Description: Growth inhibition of bacterial panel (summary statement). Conditions: PA01, ATTC 27853 and all 5 ESKAPE pathogens tested.
Experimental: 4-8 bacterial colonies of strains of interest were vortexed in saline and adjusted to an OD600 of 0.2. Strains were diluted 1:200 into CAMHB media into 96-well plates. Antibiotics were serially diluted 1:3 in DMSO, and 1 μL of each dilution was added to bacteria. The plates were incubated for 18-20 hours at 37° C. before observation.
Series [2] has as its system E. coli lptD4213. Nature of the series: Membrane potential and permeability, TO-PRO-3 and DiOC2(3) flow cytometry. Type of series: cell-based. The note with it: E. coli lptD4213, 2×MIC. The method, then: FIG. 5B provides flow cytometry of E. coli lptD4213 treated with 5% DMSO, 5 μM CCCP, or 2×MIC fluorofolin 0.04 μg/mL polymixin B, and 0.4 μg/mL trimethoprim and stained with TO-PRO-3 and DiOC2(3).
The ability of fluorofolin to permeabilize P. aeruginosa PA14 was examined. Specifically, flow cytometry of P. aeruginosa stained with TO-PRO-3 was used, treated the bacteria with 2×MIC, and analyzed membrane integrity. […] It was hypothesized that this decrease in membrane targeting might also decrease toxicity due to the disruption of eukaryotic membranes.
Overnight P. aeruginosa PA14 or E. coli lptD4213 cultures were diluted 1:100 and grown to mid exponential phase at 37° C. Cultures were diluted 1:10 into PBS and treated with antibiotics for 15 minutes. P. aeruginosa PA14 was stained with TO-PRO-3 (640 nm excitation, 670/30 nm emission) to measure cell membrane integrity. […] DiOC2(3) was evaluated as a ratio of green (488 nm excitation, 525/50 nm emission) to red (488 nm excitation, 610/20 nm emission) (Novo et al., 1999). […] 100,000 events were recorded for each data file. Gates for permeabilization were determined using Polymixin B (Sigma-Aldrich P1004) and untreated controls. Gates for depolarization were determined using CCCP as a positive control. Data was analyzed using FlowJo v10 software (FlowJo LLC, Ashland, OR).

Series [3] in a line: Pharmacokinetic analysis after single oral dose. In kind it is in vivo, mouse. Conditions: single dose 200 mg/kg PO, CD-1 mice. The method, then:
FIG. 2A quantifies plasma concentration of fluorofolin over time after single oral administration to neutropenic CD1 mice. Each line is representative of an individual mouse.
Pharmacokinetics determination: Care and handling of male CD-1 mice approximately 6-8 weeks old conformed to institutional animal care and use policies as carried out at Pharmaron, Inc. (Beijing, ROC).
Pharmacokinetic properties were determined after a single dose of 200 mg/kg fluorofolin given PO. Plasma samples were taken from three mice at times 0.083, 0.25, 0.5, 1, 2, 4, 8, and 24 hours and quantitative analysis was performed using LC/MS/MS. Half-life was determined from plasma concentration after fluorofolin levels reached pseudo-equilibrium (4 hours for mouse 1 and 2, and 2 hours for mouse 3). Pharmacokinetic values were estimated using a non-compartmental model generated from WinNonlin 6.1. Pharmacokinetic analysis was carried out by Pharmaron, Inc. (Beijing, ROC).

In a further series the test system is P. aeruginosa PA01. Nature of the series: MIC in LB Broth. In kind it is cell-based. Conditions: Pseudomonas aeruginosa, 16 hours at 37° C. in LB Broth, OD600. On the procedure:
(§1) The minimum inhibitory concentration is defined as the lowest concentration of antibiotic at which no visible growth was detected after 16 hours at 37° C. Overnight cultures were diluted 1:150 in LB Broth and added to a 96-well plate. Antibiotics were serially diluted 1:2 and added to columns of the 96-well plate and grown at 37° C. with continuous shaking. Cell growth was measured by optical density (OD600). MIC assays were performed in either BioTek Synergy HT (Winooski, VT) or Tecan InfiniteM200 Pro (Männedorf, CH) microplate readers.

Series [4] has as its system E. coli lptD4213. Description: MIC in LB Broth. The note with it: Escherichia coli, LPTD4213, 16 h. Type of series: cell-based. On the procedure:
as §1

For the next series, the system named is P. aeruginosa PA14. Description: MIC in LB Broth. In kind it is cell-based. Conditions: Pseudomonas aeruginosa. On the procedure: as §1
The next series has as its system A. baumannii BAA-125. Nature of the series: MIC in LB Broth. In kind it is cell-based. The note with it: Acinetobacter baumannii, BAA125, 16 hours at 37° C. in LB Broth, OD600. The method, then: as §1
The subject of the next series is E. coli MG1655. Nature of the series: MIC in LB Broth. In kind it is cell-based. Conditions: Escherichia coli, 16 hours at 37° C. in LB Broth, OD600. On the procedure:
as §1

Another series deals with E. cloacae ATCC BAA-1143. Nature of the series: MIC in LB Broth. Type of series: cell-based. Conditions: Enterobacter cloacae, ATCCBAA1143, 16 hours at 37° C. in LB Broth, OD600. On the procedure:
as §1

For the next series, the system named is S. aureus USA300. Description: MIC in LB Broth. Conditions: Staphylococcus aureus, 16 hours at 37° C. in LB Broth, OD600. In kind it is cell-based. The method, then:
as §1

The test system of series [5] is K. pneumoniae ATCC 438165. Description: MIC in LB Broth. In kind it is cell-based. The note with it: Klebsiella pneumoniae, ATCC438165, 16 hours at 37° C. in LB Broth, OD600. On the procedure:
as §1

A further series has as its system P. aeruginosa ATTC 27853. Description: MIC in LB Broth. Type of series: cell-based. Conditions: Pseudomonas aeruginosa, ATTC27853, 16 hours at 37° C. in LB Broth, OD600. On the procedure: as §1
Another series has as its system E. coli NCM-3722. Nature of the series: MIC in LB Broth. Conditions: Escherichia coli, NCM3722, 16 hours at 37° C. in LB Broth, OD600. In kind it is cell-based. The method, then:
as §1

Another series deals with S. epidermidis EGM-206. Nature of the series: MIC in LB Broth. Type of series: cell-based. Conditions: Staphylococcus epidermidis, EGM206, 16 hours at 37° C. in LB Broth, OD600. On the procedure:
as §1

A short description of series [6]: Serum binding (plasma protein binding, dialysis). In kind it is in vitro ADME. The note with it: mouse plasma. On the procedure:
An initial t=0 sample was collected. fluorofolin was incubated with plasma for 6 hours after which dialysis was performed. After dialysis, supernatant was collected, and the amount of fluorofolin was determined by LC-MS/MS to determine the % Unbound of fluorofolin. Serum binding parameters were determined as follows: • 1. % Bound=100%−% Unbound • 2. Log K=Log (% Bound/100−% Bound) • 3. % Remaining=Area-ratio6hr/Area-ratio0hr×100% • 4. % Recovery was determined as (Area-ratiobuffer-chamber+Area-ratioplasma-chamber)/(Area-ratioTotal sample)×100 Serum binding analysis was performed by Pharmaron, Inc. (Beijing, ROC). C. elegans Maintenance and Toxicity Assay

For orientation: half-life means the time needed for the level to fall by half in the phase considered. High values mean slow decline, low ones rapid decline. The term MIC denotes the lowest concentration that inhibits growth of the organism.

Turning to `Nc1nc(N)c2c(ccc3c2ccn3Cc2ccnc(F)c2)n1` [fluorofolin], the concentration inhibiting growth entry in series [1] is on record as “less than 50 μg/mL”. In addition, the “membrane depolarization or permeabilization” value with E. coli lptD4213 [2] is “does not cause membrane depolarization or permeabilization”. The same compound returned a half-life in series [3] of 12.1 h. Moreover, the “peak concentration (plasma)” value in [3] was determined as 4.0 µg/mL. Besides, the MIC in the series on P. aeruginosa PA01 is 6.25 µg/mL; in the series on E. coli lptD4213 [4], 0.02 µg/mL; in the series on P. aeruginosa PA14 (P. aeruginosa PA14, compound alone), 3.1 µg/mL; in the series on P. aeruginosa PA14 (P. aeruginosa PA14, 16 hours at 37° C. in LB Broth, OD600) it was 3.12 µg/mL; with A. baumannii BAA-125 it was 31.2 µg/mL; with E. coli MG1655, 0.625 µg/mL. The MIC in the series with E. cloacae ATCC BAA-1143 amounted to 12.5 µg/mL; in the series with S. aureus USA300 it was 0.4 µg/mL; in series [5] it was 6.25 µg/mL; with P. aeruginosa ATTC 27853, 25 µg/mL; with E. coli NCM-3722, 0.312 µg/mL; in the series with S. epidermidis EGM-206 it was 0.312 µg/mL. The compound further had a recovery at 6 h, 1 μM in [6] of 91.9%.
